Measured values as given in PubChem BioAssay (NCI).
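Following 48 hours of exposure in 96-well plates, responses at five concentrations were used to interpolate endpoints linearly. The concentration for full growth arrest is given as TGI.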

Key:
Assay in all cases: inhibition of tumour cell growth, NCI panel, 48 h
[1] = system: OVCAR-3 ovarian
[2] = system: RPMI-8226 leukemia
[3] = system: SF-295 CNS
[4] = system: NCI-H460 lung
[5] = system: CCRF-CEM leukemia
[6] = system: SNB-19 CNS
[7] = system: COLO 205 colon
[8] = system: NCI-H226 lung
[9] = system: UACC-62 melanoma
[10] = system: KM12 colon
[11] = system: SF-268 CNS
[12] = system: IGROV1 ovarian
[13] = system: UACC-257 melanoma
[14] = system: K-562 leukemia
[15] = system: T-47D breast
[16] = system: BT-549 breast
[17] = system: SK-MEL-5 melanoma
[18] = system: HCC-2998 colon
[19] = system: MDA-MB-435
[20] = system: SK-MEL-28 melanoma
[21] = system: MCF7 breast
[22] = system: ACHN renal
[23] = system: HOP-92 NSCLC
[24] = system: UO-31 renal
[25] = system: 786-0 renal
[26] = system: MDA-MB-231 breast
[27] = system: SW-620 colon
[28] = system: DU-145 prostate
[29] = system: HT29 colon
[30] = system: SF-539 CNS
[31] = system: EKVX NSCLC
[32] = system: OVCAR-8 ovarian
[33] = system: NCI/ADR-RES ovarian
[34] = system: M14 melanoma
[35] = system: CAKI-1 renal
[36] = system: TK-10 renal
[37] = system: MDA-N
[38] = system: U251 CNS
[39] = system: MOLT-4 leukemia
[40] = system: SNB-75 CNS
[41] = system: LOX IMVI melanoma
[42] = system: A498 renal
[43] = system: PC-3 prostate
[44] = system: HCT-15 colon
[45] = system: HL-60(TB) leukemia
[46] = system: HCT-116 colon
[47] = system: MALME-3M melanoma
[48] = system: SK-MEL-2 melanoma
[49] = system: A549 NSCLC
[50] = system: SR leukemia
[51] = system: SK-OV-3 ovarian
[52] = system: NCI-H23 lung
[53] = system: OVCAR-4 ovarian
[54] = system: HOP-62 NSCLC
[55] = system: OVCAR-5 ovarian
[56] = system: HS 578T breast
[57] = system: RXF 393 renal
[58] = system: SN12C renal
[59] = system: NCI-H522 lung

Measured: TGI

CC1(C)C(=O)C2(C#N)CCC1C2 (stereo unspecified)
> 100 µM: [1] | [2] | [3] | [4] | [5] | [6] | [7] | [8] | [9] | [10] | [11] | [12] | [13] | [14] | [15] | [16] | [17] | [18] | [19] | [20] | [21] | [22] | [23] | [24] | [25] | [26] | [27] | [28] | [29] | [30] | [31] | [32] | [33] | [34] | [35] | [36] | [37] | [38] | [39] | [40] | [41] | [42] | [43] | [44] | [45] | [46] | [47] | [48] | [49] | [50] | [51] | [52] | [53] | [54] | [55] | [56] | [57] | [58]

O=c1c2ncn(CCCl)c2n(-c2ccccc2)c(=S)n1-c1ccccc1
> 100 µM: [1] | [2] | [3] | [4] | [5] | [6] | [7] | [8] | [9] | [59] | [10] | [11] | [12] | [13] | [14] | [15] | [16] | [17] | [18] | [19] | [20] | [21] | [22] | [23] | [24] | [25] | [26] | [27] | [28] | [29] | [30] | [31] | [32] | [33] | [34] | [35] | [36] | [37] | [38] | [39] | [41] | [42] | [43] | [44] | [45] | [46] | [47] | [48] | [49] | [50] | [51] | [52] | [53] | [54] | [55] | [56] | [57] | [58]
